According to patent publication US20160194358A1, “LINEAR PEPTIDE ANTIBIOTCS” (priority 2013, published 2016):
≈ marks a conversion by molar mass, not a printed value. *1 amine or outer side, *2 acyl side, *3 side chain or, on linkers, in order; H or OH if unused. Where a SMILES comes first, the peptide text is derived from it. [ ]: non-standard residue; d: D form. The star is where a group is joined. boroAla((+)-pinanediol) = C[C@H](N*)B1O[C@@H]2C[C@@H]3C[C@@H](C3(C)C)[C@]2(C)O1; Biphenylcarbonyl(4'-Bu) = CCCCc1ccc(-c2ccc(C(=O)*)cc2)cc1; Benzoyl(4-(4-Cl-Ph)) = O=C(c1ccc(-c2ccc(Cl)cc2)cc1)*; X14 = O=C(c1ccc(Oc2ccc(Cl)cc2)cc1)*; X12 = C[C@H](N*)C(=O)c1nc2ccccc2o1; X15 = Cc1nnc(C(=O)[C@H](C)N*)o1; X2 = C[C@H](N*)C(=O)c1ncco1; X9 = CC1(c2ccccc2)CCN(*)CC1; Dab = NCC[C@H](N)C(=O)O; Dap = NC[C@H](N)C(=O)O; CO = O=C([*:1])[*:2]; CF3 = FC(F)(F)*; CH2Cl = ClC*

Legend:
[1] = test system: methicillin resistant Staphylococcus aureus (MRSA) strain USA300 (NRS384); settings: MRSA USA300 (NRS384); 35° C., 22 hours
Summary of the method: (§1)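 CLSI broth microdilution in cation-adjusted Mueller Hinton Broth with 0.002% Tween-80, two-fold dilutions starting at 64 μg/ml.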

[2] = test system: Escherichia coli strain MC4100 IMP-4213, which harbors an LptD mutation; settings: E. coli MC4100 IMP-4213; 35° C., 22 hours
Summary of the method: as §1

S. aureus SPase = S. aureus SPase (Staphylococcus aureus, UniProt P0A070); test: biochemical; settings: IC 50 (nM) S. aureus, 20 μM substrate, 10 minutes preincubation
Chain of S. aureus SPase (P0A070 whole entry): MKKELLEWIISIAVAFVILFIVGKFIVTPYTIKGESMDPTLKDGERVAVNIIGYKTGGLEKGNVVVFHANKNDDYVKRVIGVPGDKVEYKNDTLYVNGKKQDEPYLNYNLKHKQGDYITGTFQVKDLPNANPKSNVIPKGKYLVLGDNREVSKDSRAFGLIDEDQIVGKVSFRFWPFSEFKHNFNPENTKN
Description: Full length His-tagged S. aureus SPase protein was expressed similarly from E. coli BL21(DE3) containing the plasmid pCDF1-SaSpsB and purified similarly to the E. coli protein with the following exceptions. SPase protein was solubilized using 300 mM NaCl, 20 mM Tris pH 8.06, 5 mM Imidazole, 10% glycerol, 1% Triton X-100, prior to purification in Ni-NTA Superflow resin and resin bound protein was washed in a similar buffer containing 1% Elugent in place of Triton X-100 prior to protein eluted in wash buffer supplemented with 300 mM imidazole. […] All protein concentrations were determined by BCA assay.
(§2) Signal peptidase enzyme activity of the above proteins was measured using two fluorogenic peptide substrates (decanoyl-LSSPAYNO2A ? ADKabzPD and decanoyl-LTPTAYNO2A ? ASKKabzDD), where abz is the fluorescence donor 2-aminobenzamide, YNO2 is the fluorescence acceptor 3-nitrotyrosine, and the cleavage site is indicated with an arrow. Enzyme mix solution was prepared by diluting 2.5 nM of Escherichia coli or Staphylococcus aureus SPase protein into reaction buffers consisting of 20 mM PO4 pH 7.4, 100 mM NaCl, and 1% Elugent™ or octyl phenoxypolyethoxylethanol detergent at a concentration of 0.25% or 0.0625%. Reactions were initiated by the addition of substrate to a final concentration of 20 μM. Reaction progress was monitored by measuring the increase in fluorescence signal (excitation at 314 nm, emission at 416 nm) using a SpectraMax M2 fluorescence microplate reader. To determine IC50 values of test compounds, compound stock solutions were prepared in DMSO at a concentration of 1 mM. Three-folder serial dilutions of test compounds, starting at 10 μM, were prepared in enzyme mix solution and incubated at room temperature for 10 minutes. Following this incubation, fluorogenic substrate was added to a final concentration of 20 μM and the increase in fluorescence, corresponding to substrate cleavage, was monitored continuously at room temperature for 1 hour. Initial reaction rates were calculated based on the rate of increase in fluorescence during the reaction. Reaction rates were plotted as a function of compound concentration, and IC50 values are determined nonlinear regression analysis (SoftMaxPro 5.4, Molecular Devices™) of the sigmoidal dose-response curve.

E. coli SPase = biological target: T1, E. coli SPase (Escherichia coli, UniProt P00803); test: Biochemical SPase activity assay, fluorogenic peptide substrate, E. coli enzyme; settings: 20 μM substrate, 10 minutes preincubation, read-out: IC 50 (nM) E. coli
T1 construct: Full length His-tagged E. coli SPase proteins; His; made in house; host or cells: E. coli BL21(DE3)
T1 sequence (P00803 whole entry): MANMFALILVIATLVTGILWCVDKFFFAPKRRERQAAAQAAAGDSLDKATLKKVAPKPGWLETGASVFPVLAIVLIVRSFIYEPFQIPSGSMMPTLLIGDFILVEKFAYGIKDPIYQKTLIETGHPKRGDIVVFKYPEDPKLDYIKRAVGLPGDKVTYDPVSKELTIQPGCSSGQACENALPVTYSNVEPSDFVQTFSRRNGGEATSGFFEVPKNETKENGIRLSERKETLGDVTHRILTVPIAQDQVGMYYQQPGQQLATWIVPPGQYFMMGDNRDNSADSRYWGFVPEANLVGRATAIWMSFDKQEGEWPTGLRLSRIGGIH
Description: Full length His-tagged E. coli SPase proteins were expressed in E. coli BL21(DE3) containing the plasmid pET23-lepB. Briefly, saturated overnight cultures grown in 20 ml of Luria-Bertani medium supplemented with ampicillin were subcultures into 1.5 L of Luria-Bertani, and shaken at 37° C. until an optical density at 600 nm of 0.4-0.5 was achieved.
as §2

SMILES	MIC (μg/mL) S. aureus [1]	MIC (μg/mL) E. coli [2]	IC50 (S. aureus SPase)	IC50 (E. coli SPase)
C[C@H](NC(=O)[C@H](CCCCN)NC(=O)[C@H](C)NC(=O)[C@@H](NC(=O)[C@H](CN)NC(=O)c1ccc(Oc2ccc(Cl)cc2)cc1)[C@@H](C)O)B1O[C@@H]2C[C@@H]3C[C@@H](C3(C)C)[C@]2(C)O1 [Compound 129] (X14-[Dap]TAK-{boroAla((+)-pinanediol)})	2.8 µg/mL (≈ 3.33 µM)	4 µg/mL (≈ 4.76 µM)	120 nM	3.6 nM
C[C@H](NC(=O)[C@H](CCCCN)NC(=O)[C@H](C)NC(=O)[C@@H](NC(=O)[C@H](CCCCN)NC(=O)N1CCC(C)(c2ccccc2)CC1)[C@@H](C)O)B1O[C@@H]2C[C@@H]3C[C@@H](C3(C)C)[C@]2(C)O1 [Compound 130] ({X9-CO}-KTAK-{boroAla((+)-pinanediol)})	64 µg/mL (≈ 75 µM)	>64 µg/mL	280 nM	270 nM
CCCCc1ccc(-c2ccc(C(=O)N[C@@H](CCN)C(=O)N[C@H](C(=O)N[C@@H](C)C(=O)N[C@@H](CCCCN)C(=O)N[C@@H](C)C(=O)C(F)(F)F)[C@@H](C)O)cc2)cc1 [Compound 210] ({Biphenylcarbonyl(4'-Bu)}-[Dab]TAKA-CF3)	11 µg/mL (≈ 14.1 µM)	4 µg/mL (≈ 5.14 µM)	2300 nM	260 nM
CCCCc1ccc(-c2ccc(C(=O)N[C@@H](CCN)C(=O)N[C@H](C(=O)N[C@@H](C)C(=O)N[C@@H](CCCCN)C(=O)N[C@@H](C)C(=O)CCl)[C@@H](C)O)cc2)cc1 [Compound 211] ({Biphenylcarbonyl(4'-Bu)}-[Dab]TAKA-CH2Cl)	4 µg/mL (≈ 5.27 µM)	16 µg/mL (≈ 21.1 µM)	390 nM	380 nM
C[C@H](NC(=O)[C@@H](NC(=O)[C@H](CN)NC(=O)c1ccc(-c2ccc(Cl)cc2)cc1)[C@@H](C)O)C(=O)N[C@@H](CCCCN)C(=O)N[C@@H](C)C(=O)c1ncco1 [Compound 212] ({Benzoyl(4-(4-Cl-Ph))}-[Dap]TAK-X2)	45 µg/mL (≈ 60.7 µM)	64 µg/mL (≈ 86.3 µM)	2600 nM	34 nM
Cc1nnc(C(=O)[C@H](C)NC(=O)[C@H](CCCCN)NC(=O)[C@H](C)NC(=O)[C@H](CCCCN)NC(=O)[C@H](CN)NC(=O)c2ccc(-c3ccc(Cl)cc3)cc2)o1 [Compound 213] ({Benzoyl(4-(4-Cl-Ph))}-[Dap]KAK-X15)	32 µg/mL (≈ 40.9 µM)	64 µg/mL (≈ 81.7 µM)	> 10000 nM	49 nM
C[C@H](NC(=O)[C@@H](NC(=O)[C@H](CN)NC(=O)c1ccc(-c2ccc(Cl)cc2)cc1)[C@@H](C)O)C(=O)N[C@@H](CCCCN)C(=O)N[C@@H](C)C(=O)c1nc2ccccc2o1 [Compound 214] ({Benzoyl(4-(4-Cl-Ph))}-[Dap]TAK-X12)	64 µg/mL (≈ 80.9 µM)	32 µg/mL (≈ 40.4 µM)	630 nM	180 nM
